Laboratory results as given in paper PMC5614969, “High-Affinity Functional Fluorescent Ligands for Human β-Adrenoceptors” (Scientific Reports, 2017).

Assays:
β2AR [1] = molecular target: T1, β2AR (Homo sapiens, UniProt P07550); experiment: cAMP FRET sensor (TEpacVV) agonist assay in HEK 293 cells; format: cell-based; settings: for intracellular cAMP level: addition of probe to the cells, 60 min at room temperature (Suppl. Fig. 13)
Protocol: Upon cAMP binding, the sensor undergoes a conformational change resulting in a decrease of the FRET efficiency between two fluorescent proteins: mTurquoise - a version of cyan fluorescent protein (CFP) as the donor, and yellow fluorescent protein (YFP) as the acceptor (Fig. 3a).
The intracellular cyclic adenosine monophosphate (cAMP) levels were determined with HEK 293 cells expressing a 3′,5′-cAMP FRET sensor. The cells were a generous gift from Ruud Hovius from École poly-technique fédérale de Lausanne (EPFL). The cAMP production induces a conformational switch in ^TEpac^VV and causes a decrease in FRET efficiency, i.e. a decreased energy transfer between the two fluorescent proteins (donor mTurquoise and acceptor YFP)[32].
The culture was maintained by subculturing the cells every 4 to 5 days using the standard trypsinization procedure. Before measurements, cells were trypsinated and transferred in a 96-well glass bottom plate (MatTek Corporation; Cat. No. P96GC-1.5–5-F) to contain 10,000–30,000 cells per well in 200 µL of DMEM media. After 24 h incubation in 5% CO2 at 37 °C, the cells were washed with HBSS pH 7.2 (200 µL), and the wells were filled with 200 µL HBSS. The DMSO stock solutions of the fluorescent probes were diluted 5,000 times in HBSS and used in experiments. […] The fluorescent ligand solutions of different concentrations in HBSS were premixed with the isoprenaline solution. 50 µL of a final solution was added to each well and the measurement was started upon addition and continued for 1 h in 10 min intervals between the readouts (inclusive).
The ligands were added using an automated pipette to initiate the sensor response. FRET readout from the cAMP sensor was performed on a multiwell plate reader Spark 20 M (Tecan) at room temperature (25 °C). Fluorescence readout amplitudes were calculated from time series for different ligand concentrations, following background subtraction (media only). […] Data were derived from 3 independent experiments and each independent experiment was performed in triplicate.
Sensor response R(CFP/FRET) was calculated using (1):1 R(CFP/FRET)=(FimTurquoise−FbkgmTurquoise)/(FiFRET−FbkgFRET) where F i ^mTurquoise – mTurquoise fluorescence intensity in the wells with cells; F bkg ^mTurquoise - mTurquoise fluorescence intensity in the control wells without cells; F i ^FRET – FRET signal intensity in the wells with cells; F bkg ^FRET – FRET signal intensity in the control wells without cells. For every result, R(CFP/FRET) ratio was normalized to the R(CFP/FRET) response of DMSO sample.

[2] = Fluorescence increase upon addition of SDS to probe solutions; format: physicochemical; settings: addition of 0.1% SDS to ligand in PBS pH 7.4 with 1 mg/ml BSA; mean ± SD, n=3
Protocol: Fluorescence spectra of 1 µM solution of fluorescent dyes and ligands in PBS pH 7.4, PBS pH 7.4 + 1 mg/ml BSA (Sigma) and with or without 0.1% SDS (Acros Organics) were recorded on a multiwell plate reader Spark 20 M (Tecan) in half-area black 96-well plates (Greiner Bio-One, cat. 675076) at room temperature (25 °C) after 2 h incubation. Fluorescence emission was recorded from 600 nm to 800 nm with excitation at 580 nm. The emission bandwidth for all measurements was set to 5 nm. The spectra were averaged from 3 individual experiments. Ratios F(BSA+SDS)/F(BSA) of fluorescence signals at 635 nm for 610CP, 645 nm for BODIPY 630/650-X and 655 nm for KK114 conjugates were calculated. The obtained results are summarized (Table 1 and Supplementary Fig. 7).

β2AR [3] = molecular target: T1, β2AR; experiment: Staining and competitive binding in CAPAN-1 cells at endogenous β2AR expression; format: cell-based; settings: for receptor staining: 100 nM probe; for competitive binding with excess unlabeled ligand: 100 nM probe (5 nM ab118171) with 10 µM BI-167107 or carazolol
Protocol: To study the selectivity of β2AR staining at the endogenous expression levels, which are much lower compared to those in transiently β2AR expressing U2OS cells, we tested the performance of BI-167107 probes in pancreatic CAPAN-1 cells (Fig. 7c–f). […] Low density of β2AR in the plasma membrane of CAPAN-1 cells allowed us to measure of the lateral resolution in the STED images. When the cells were incubated with 100 nM BI-PEG-KK114 (18) ligand, we observed two-fold improvement in the resolution resulting in apparent structures of ~100 nm (Fig. 7d; Supplementary Table 4).
For staining of CAPAN-1 cells, fluorescent probes or mixtures of a probe and a competitor were incubated in McCoy’s 5a Medium Modified supplemented with 10% fetal bovine serum (FBS) for 30–40 min at room temperature. Afterwards, the samples were washed two times with HBSS, and cells were imaged in DMEM (Thermo Fisher Scientific) supplemented with GlutaMAX-1 (Thermo Fisher Scientific) and 10% fetal bovine serum (FBS). Imaging performed on Leica SP8 (Leica Microsystems) or Abberior STED (Abberior Instruments GmbH) microscopes.

[4] = pH dependence of ligand fluorescence; format: physicochemical
Protocol: pH dependence of βAR ligands fluorescence were recorded on a multiwell plate reader Spark 20 M (Tecan) in 96-well glass bottom plates (MatTek Corporation; Cat. No. PBK96G-1.5-5-F) in PBS solutions (pH 4.7–8.0) at room temperature (25 °C). The 100x stock solutions of ligands were prepared in DMSO.

T1 sequence (P07550 whole entry): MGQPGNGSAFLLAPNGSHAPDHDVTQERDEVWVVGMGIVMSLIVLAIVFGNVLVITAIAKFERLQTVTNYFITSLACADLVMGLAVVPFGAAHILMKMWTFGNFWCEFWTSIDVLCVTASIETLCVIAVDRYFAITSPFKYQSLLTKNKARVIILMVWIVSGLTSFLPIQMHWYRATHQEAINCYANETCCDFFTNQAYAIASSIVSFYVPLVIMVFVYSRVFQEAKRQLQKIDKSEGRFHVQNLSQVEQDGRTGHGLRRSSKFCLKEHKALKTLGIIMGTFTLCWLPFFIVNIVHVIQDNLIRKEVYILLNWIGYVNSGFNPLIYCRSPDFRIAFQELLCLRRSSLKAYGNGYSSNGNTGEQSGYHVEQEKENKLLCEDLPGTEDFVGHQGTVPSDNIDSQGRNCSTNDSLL

## CN(CCC(=O)NCCOCCOCCOCCOCCC(=O)NCCC(C)(C)NCC(O)COc1cccc2[nH]c3ccccc3c12)C(=O)c1c(F)c(F)c(F)c(F)c1C1=c2cc3c4c(c2Oc2c1cc1c5c2CCCN5C(C)(C)C=C1CS(=O)(=O)O)CCC[N+]=4C(C)(C)C=C3CS(=O)(=O)[O-] (centres unmarked) [Carazolol-KK114 (24)]
β2AR [1]
  intracellular cAMP level: did not change
[2]
  Fluorescence increase (F BSA+SDS / F BSA): 5.9±1.5
β2AR [3]
  receptor staining: plasma membrane localized receptor staining
  competitive binding with excess unlabeled ligand: efficiently displaced
[4]; pH ~7 versus pH ~5
  fluorescence intensity retained relative to maximal: about 90%

## Cc1c(CCC(=O)NCCOCCOCCNC(=O)CCN(C)C(=O)c2c(F)c(F)c(F)c(F)c2C2=c3cc4c5c(c3Oc3c2cc2c6c3CCCN6C(C)(C)C=C2CS(=O)(=O)O)CCC[N+]=5C(C)(C)C=C4CS(=O)(=O)[O-])cccc1CC(C)(C)NCC(O)c1ccc(O)c2c1OCC(=O)N2 (centres unmarked) [BI-PEG-KK114 (18)]
β2AR [1]; HEK 293 expressing 3′,5′-cAMP FRET sensor, 30 min incubation, room temperature, read-out: EC50 (mean ± SD)
  EC50: 5.7 ± 2.2 nM
β2AR [1]
  intracellular cAMP level: induces intracellular cAMP level increase
[2]
  Fluorescence increase (F BSA+SDS / F BSA): 1.4±0.1
β2AR [3]
  receptor staining: plasma membrane localized receptor staining
  competitive binding with excess unlabeled ligand: no background fluorescence
[4]; at pH 8.0
  emission intensity decrease: 30%
